What was measured:
Test in all cases: relative viability (nuclei count vs DMSO), 5 days (fraction); higher = more cells survive
[1] = compound: CCN1C(=O)C2=CC(=C(N=C2N(C1=O)C3CC3)N)C(=O)N + C[C@@H](Oc1cc(-c2cnn(C3CCNCC3)c2)cnc1N)c1c(Cl)ccc(F)c1Cl [Crizotinib] (partner 1 µM)
Procedure, shortened: (§1)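 Relative viability equals treated-well nuclei counts divided by vehicle-well nuclei counts. Counts came from 4× images of lung cancer cell lines grown in 1536-well plates for 5 days after pin-tool dosing on the day after seeding. Dosing used one drug alone or a fixed anchor-drug dose plus five library-drug doses (not always all listed) in √10 steps, and values are medians of duplicate plates.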

[2] = compound: CCN1C(=O)C2=CC(=C(N=C2N(C1=O)C3CC3)N)C(=O)N + Nc1ncn([C@H]2C[C@H](O)[C@@H](CO)O2)c(=O)n1 [Decitabine] (partner 2 µM)
Procedure, shortened: as §1

[3] = compound: CCN1C(=O)C2=CC(=C(N=C2N(C1=O)C3CC3)N)C(=O)N + COc1cc2c(Oc3ccc(NC(=O)C4(C(=O)Nc5ccc(F)cc5)CC4)cc3F)ccnc2cc1OCCCN1CCOCC1 [Foretinib] (partner 0.25 µM)
Procedure, shortened: as §1

[4] = compound: CCN1C(=O)C2=CC(=C(N=C2N(C1=O)C3CC3)N)C(=O)N + N=C(N)NC(=N)NCCc1ccccc1 [Phenformin] (partner 250 µM)
Procedure, shortened: as §1

[5] = compound: CCN1C(=O)C2=CC(=C(N=C2N(C1=O)C3CC3)N)C(=O)N + CS(=O)(=O)CCNCc1ccc(-c2ccc3ncnc(Nc4ccc(OCc5cccc(F)c5)c(Cl)c4)c3c2)o1 [Lapatinib] (partner 2 µM)
Procedure, shortened: as §1

[6] = compound: CCN1C(=O)C2=CC(=C(N=C2N(C1=O)C3CC3)N)C(=O)N + CS(=O)(=O)N1CCN(Cc2cc3nc(-c4cccc5[nH]ncc45)nc(N4CCOCC4)c3s2)CC1 [Pictilisib] (partner 1 µM)
Procedure, shortened: as §1

[7] = compound: CCN1C(=O)C2=CC(=C(N=C2N(C1=O)C3CC3)N)C(=O)N + CC1(C)CCC(c2ccc(Cl)cc2)=C(CN2CCN(c3ccc(C(=O)NS(=O)(=O)c4ccc(N[C@H](CCN5CCOCC5)CSc5ccccc5)c(S(=O)(=O)C(F)(F)F)c4)cc3)CC2)C1 [Navitoclax] (partner 0.5 µM)
Procedure, shortened: as §1

[8] = compound: CCN1C(=O)C2=CC(=C(N=C2N(C1=O)C3CC3)N)C(=O)N + C[C@]1(O)C[C@@H](c2nc(-c3ccc4ccc(-c5ccccc5)nc4c3)c3c(N)nccn32)C1 [Linsitinib] (partner 1 µM)
Procedure, shortened: as §1

[9] = compound: CCN1C(=O)C2=CC(=C(N=C2N(C1=O)C3CC3)N)C(=O)N + Cc1nc(NC(=O)N2CCC[C@H]2C(N)=O)sc1-c1ccnc(C(C)(C)C(F)(F)F)c1 [Alpelisib] (partner 2 µM)
Procedure, shortened: as §1

[10] = compound: CCN1C(=O)C2=CC(=C(N=C2N(C1=O)C3CC3)N)C(=O)N + O=C(c1cc(Cc2n[nH]c(=O)c3ccccc23)ccc1F)N1CCN(C(=O)C2CC2)CC1 [Olaparib] (partner 8 µM)
Procedure, shortened: as §1

[11] = compound: CCN1C(=O)C2=CC(=C(N=C2N(C1=O)C3CC3)N)C(=O)N
Procedure, shortened: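 Hoechst staining, done together with fixation and permeabilisation, marked nuclei for 4× imaging and MetaXpress counting. This followed 5 days without medium change after lung cancer cell lines, kept overnight at 37 °C in 1536-well plates, were pinned with five library-drug doses (not always all listed) spaced by √10 on vehicle-anchored plates. Viability is the ratio of treated-well to vehicle-well nuclei, expressed as a median across plates. Plates passed only at control CV below 25% with at least one doubling.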

[12] = compound: CCN1C(=O)C2=CC(=C(N=C2N(C1=O)C3CC3)N)C(=O)N + CC(C)C[C@H](NC(=O)[C@H](Cc1ccccc1)NC(=O)c1cnccn1)B(O)O [Bortezomib] (partner 0.002 µM)
Procedure, shortened: as §1

## A549
[1]; first compound 0.253 µM
  relative viability: 0.712
[1]; first compound 0.8 µM
  relative viability: 0.76
[1]; first compound 2.53 µM
  relative viability: 0.732
[1]; first compound 8 µM
  relative viability: 0.886
[2]; first compound 0.253 µM
  relative viability: 0.215
[2]; first compound 0.8 µM
  relative viability: 0.341
[2]; first compound 2.53 µM
  relative viability: 0.218
[2]; first compound 8 µM
  relative viability: 0.11
[3]; first compound 0.253 µM
  relative viability: 0.898
[3]; first compound 0.8 µM
  relative viability: 1.06
[3]; first compound 2.53 µM
  relative viability: 0.809
[3]; first compound 8 µM
  relative viability: 1.01
[4]; first compound 0.8 µM
  relative viability: 0.22
[4]; first compound 2.53 µM
  relative viability: 0.155
[4]; first compound 8 µM
  relative viability: 0.155
[5]; first compound 0.253 µM
  relative viability: 0.981
[5]; first compound 0.8 µM
  relative viability: 0.914
[5]; first compound 2.53 µM
  relative viability: 0.94
[5]; first compound 8 µM
  relative viability: 1.1
[6]; first compound 0.253 µM
  relative viability: 0.557
[6]; first compound 0.8 µM
  relative viability: 0.553
[6]; first compound 2.53 µM
  relative viability: 0.41
[6]; first compound 8 µM
  relative viability: 0.592
[7]; first compound 0.253 µM
  relative viability: 1.14
[7]; first compound 0.8 µM
  relative viability: 1.13
[7]; first compound 2.53 µM
  relative viability: 1.22
[7]; first compound 8 µM
  relative viability: 1.16
[8]; first compound 0.8 µM
  relative viability: 0.605
[8]; first compound 2.53 µM
  relative viability: 0.505
[8]; first compound 8 µM
  relative viability: 0.516
[9]; first compound 0.253 µM
  relative viability: 0.698
[9]; first compound 0.8 µM
  relative viability: 0.858
[9]; first compound 2.53 µM
  relative viability: 0.746
[9]; first compound 8 µM
  relative viability: 0.931
[10]; first compound 0.8 µM
  relative viability: 0.305
[10]; first compound 2.53 µM
  relative viability: 0.302
[10]; first compound 8 µM
  relative viability: 0.392
[11]; 0.253 µM
  relative viability: 0.985
[11]; 0.8 µM
  relative viability: 1.02
[11]; 2.53 µM
  relative viability: 0.962
[11]; 8 µM
  relative viability: 0.956

## Calu-6
[1]; first compound 0.253 µM
  relative viability: 0.808
[1]; first compound 0.8 µM
  relative viability: 0.81
[1]; first compound 2.53 µM
  relative viability: 0.721
[1]; first compound 8 µM
  relative viability: 0.805
[3]; first compound 0.253 µM
  relative viability: 0.892
[3]; first compound 0.8 µM
  relative viability: 0.809
[3]; first compound 2.53 µM
  relative viability: 0.845
[3]; first compound 8 µM
  relative viability: 0.803
[5]; first compound 0.253 µM
  relative viability: 1.06
[5]; first compound 0.8 µM
  relative viability: 1.05
[5]; first compound 2.53 µM
  relative viability: 0.957
[5]; first compound 8 µM
  relative viability: 0.997
[6]; first compound 0.253 µM
  relative viability: 0.925
[6]; first compound 0.8 µM
  relative viability: 0.819
[6]; first compound 2.53 µM
  relative viability: 0.923
[6]; first compound 8 µM
  relative viability: 1
[7]; first compound 0.253 µM
  relative viability: 0.828
[7]; first compound 0.8 µM
  relative viability: 0.822
[7]; first compound 2.53 µM
  relative viability: 0.826
[7]; first compound 8 µM
  relative viability: 0.883
[8]; first compound 0.253 µM
  relative viability: 0.924
[8]; first compound 0.8 µM
  relative viability: 0.946
[8]; first compound 2.53 µM
  relative viability: 0.869
[8]; first compound 8 µM
  relative viability: 0.866
[9]; first compound 0.253 µM
  relative viability: 1.03
[9]; first compound 0.8 µM
  relative viability: 0.876
[9]; first compound 2.53 µM
  relative viability: 0.866
[9]; first compound 8 µM
  relative viability: 0.925
[12]; first compound 0.253 µM
  relative viability: 1
[12]; first compound 0.8 µM
  relative viability: 0.954
[12]; first compound 2.53 µM
  relative viability: 1.02
[12]; first compound 8 µM
  relative viability: 0.958
[10]; first compound 0.253 µM
  relative viability: 0.554
[10]; first compound 0.8 µM
  relative viability: 0.573
[10]; first compound 2.53 µM
  relative viability: 0.582
[10]; first compound 8 µM
  relative viability: 0.566
[11]; 0.253 µM
  relative viability: 0.963
[11]; 0.8 µM
  relative viability: 1.01
[11]; 2.53 µM
  relative viability: 0.902
[11]; 8 µM
  relative viability: 0.905

## EBC-1
[1]; first compound 0.253 µM
  relative viability: 0.163
[1]; first compound 0.8 µM
  relative viability: 0.184
[1]; first compound 2.53 µM
  relative viability: 0.208
[1]; first compound 8 µM
  relative viability: 0.218
[3]; first compound 0.253 µM
  relative viability: 0.105
[3]; first compound 0.8 µM
  relative viability: 0.114
[3]; first compound 2.53 µM
  relative viability: 0.104
[3]; first compound 8 µM
  relative viability: 0.119
[5]; first compound 0.253 µM
  relative viability: 0.186
[5]; first compound 0.8 µM
  relative viability: 0.204
[5]; first compound 2.53 µM
  relative viability: 0.206
[5]; first compound 8 µM
  relative viability: 0.211
[6]; first compound 0.253 µM
  relative viability: 0.35
[6]; first compound 0.8 µM
  relative viability: 0.352
[6]; first compound 2.53 µM
  relative viability: 0.335
[6]; first compound 8 µM
  relative viability: 0.494
[7]; first compound 0.253 µM
  relative viability: 0.441
[7]; first compound 0.8 µM
  relative viability: 0.43
[7]; first compound 2.53 µM
  relative viability: 0.451
[7]; first compound 8 µM
  relative viability: 0.378
[8]; first compound 0.253 µM
  relative viability: 0.851
[8]; first compound 0.8 µM
  relative viability: 0.938
[8]; first compound 2.53 µM
  relative viability: 0.808
[8]; first compound 8 µM
  relative viability: 0.886
[9]; first compound 0.253 µM
  relative viability: 0.84
[9]; first compound 0.8 µM
  relative viability: 0.77
[9]; first compound 2.53 µM
  relative viability: 0.78
[9]; first compound 8 µM
  relative viability: 0.834
[12]; first compound 0.253 µM
  relative viability: 0.496
[12]; first compound 0.8 µM
  relative viability: 0.5
[12]; first compound 2.53 µM
  relative viability: 0.489
[12]; first compound 8 µM
  relative viability: 0.61
[10]; first compound 0.253 µM
  relative viability: 0.7
[10]; first compound 0.8 µM
  relative viability: 0.695
[10]; first compound 2.53 µM
  relative viability: 0.618
[10]; first compound 8 µM
  relative viability: 0.777
[11]; 0.253 µM
  relative viability: 0.932
[11]; 0.8 µM
  relative viability: 1.02
[11]; 2.53 µM
  relative viability: 0.979
[11]; 8 µM
  relative viability: 1.03

## NCI-H1299
[1]; first compound 0.253 µM
  relative viability: 1
[1]; first compound 0.8 µM
  relative viability: 0.914
[1]; first compound 2.53 µM
  relative viability: 0.924
[1]; first compound 8 µM
  relative viability: 0.966
[3]; first compound 0.253 µM
  relative viability: 1.16
[3]; first compound 0.8 µM
  relative viability: 1.1
[3]; first compound 2.53 µM
  relative viability: 1.08
[3]; first compound 8 µM
  relative viability: 1.05
[5]; first compound 0.253 µM
  relative viability: 1.06
[5]; first compound 0.8 µM
  relative viability: 0.978
[5]; first compound 2.53 µM
  relative viability: 0.933
[5]; first compound 8 µM
  relative viability: 0.947
[6]; first compound 0.253 µM
  relative viability: 0.879
[6]; first compound 0.8 µM
  relative viability: 0.81
[6]; first compound 2.53 µM
  relative viability: 0.701
[6]; first compound 8 µM
  relative viability: 0.962
[7]; first compound 0.253 µM
  relative viability: 1.07
[7]; first compound 0.8 µM
  relative viability: 1.06
[7]; first compound 2.53 µM
  relative viability: 1.04
[7]; first compound 8 µM
  relative viability: 1.01
[8]; first compound 0.253 µM
  relative viability: 0.991
[8]; first compound 0.8 µM
  relative viability: 0.98
[8]; first compound 2.53 µM
  relative viability: 0.93
[8]; first compound 8 µM
  relative viability: 0.982
[9]; first compound 0.253 µM
  relative viability: 1.01
[9]; first compound 0.8 µM
  relative viability: 1.15
[9]; first compound 2.53 µM
  relative viability: 1.05
[9]; first compound 8 µM
  relative viability: 1.08
[12]; first compound 0.253 µM
  relative viability: 1.01
[12]; first compound 0.8 µM
  relative viability: 1.01
[12]; first compound 2.53 µM
  relative viability: 1
[12]; first compound 8 µM
  relative viability: 0.999
[10]; first compound 0.253 µM
  relative viability: 0.922
[10]; first compound 0.8 µM
  relative viability: 0.956
[10]; first compound 2.53 µM
  relative viability: 0.918
[10]; first compound 8 µM
  relative viability: 0.942
[11]; 0.253 µM
  relative viability: 1.02
[11]; 0.8 µM
  relative viability: 1.02
[11]; 2.53 µM
  relative viability: 0.986
[11]; 8 µM
  relative viability: 0.976

From the supplement of paper PMC10307832
